Measurements taken from patent US8426623B2, “Surface modified nanoparticle and preparation method thereof” (National Tsing Hua University, priority 2010, dated 2013).

Assay: Anti-oxidative activity of phenol compound (H2O2 scavenging)
Conditions: substance/H2O2=1, reacted with H2O2 before H2O2 was measured; versus unreacted H2O2 control; FIG. 1
Procedure: H2O2 was the tested ROS in testing anti-oxidative activity of HPPDA. There are 3 sets in this experiment, including H2O2, HPPDA/H2O2 and ascorbic acid/H2O2, where HPPDA/H2O2=1, ascorbic acid/H2O2=1, and HPPDA, ascorbic were respectively reacted with H2O2 before H2O2 was measured. The control is represented with H2O2 without undergoing any reaction.
Referring to FIG. 1, as the comparison result with control has shown, the concentration of H2O2 was lowered after reacted with ascorbic acid and HPPDA (# for significant difference, p<0.01). Particularly, H2O2 concentration was lowered by ascorbic acid with 30 μM and lowered by HPPDA with 40 μM; this means better H2O2 absorption by HPPDA than ascorbic acid.

For O=C1O[C@H]([C@@H](O)CO)C(O)=C1O [ascorbic acid], the “H2O2 concentration lowered by” value was 30 µM.
With O=C(O)/C=C/C=C/c1ccc(O)cc1 [HPPDA, (2E,4E)-5-(4-hydroxyphenyl)penta-2,4-dienoic acid] the “H2O2 concentration lowered by” value was 40 µM.
